Laboratory results: patent US7795261B2, “Substituted 1-piperidin-4-yl-4-pyrrolidin-3-yl-piperazine derivatives and their use as neurokinin antagonists” (Janssen Pharmaceutica NV, priority 2002, dated 2010)

Tests used:
[1] = molecular target: T1, NK3 (Homo sapiens, UniProt P29371); test: Signal transduction (ST), intracellular Ca++ (FLIPR), NK3; format: cell-based; details: read-out: pIC50 NK3 (converted)
T1 sequence (P29371 1-465): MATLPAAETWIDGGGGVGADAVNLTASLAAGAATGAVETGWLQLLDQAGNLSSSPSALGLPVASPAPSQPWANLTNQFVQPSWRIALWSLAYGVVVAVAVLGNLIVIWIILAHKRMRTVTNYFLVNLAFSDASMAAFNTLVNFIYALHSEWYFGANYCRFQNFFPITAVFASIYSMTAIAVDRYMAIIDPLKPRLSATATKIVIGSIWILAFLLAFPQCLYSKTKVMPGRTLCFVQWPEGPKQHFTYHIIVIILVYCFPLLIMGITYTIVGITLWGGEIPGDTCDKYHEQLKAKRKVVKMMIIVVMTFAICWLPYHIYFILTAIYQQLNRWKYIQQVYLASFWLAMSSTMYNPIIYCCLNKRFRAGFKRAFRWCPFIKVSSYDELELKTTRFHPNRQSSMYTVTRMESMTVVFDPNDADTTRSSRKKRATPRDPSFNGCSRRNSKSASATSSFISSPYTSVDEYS
Method: [The procedure below names another target; the source lists this target under the same test.] (§1) This test evaluates in vitro functional NK1 antagonistic activity. For the measurements of intracellular Ca^++ concentrations the cells were grown on 96-well (black wall/transparent bottom) plates from Costar for 2 days until they reached confluence. The cells were loaded with 2 μM Fluo3 in DMEM containing 0.1% BSA and 2.5 mM probenecid for 1 h at 37° C. They were washed 3× with a Krebs buffer (140 mM NaCl, 1 mM MgCl2×6H2O, 5 mM KCl, 10 mM glucose, 5 mM HEPES; 1.25 mM CaCl2; pH 7.4) containing 2.5 mM probenecid and 0.1% BSA (Ca^++-buffer). The cells were preincubated with a concentration range of antagonists for 20 min at RT and Ca^++-signals after addition of the agonists were measured in a Fluorescence Image Plate Reader (FLIPR from Molecular Devices, Crawley, England). The peak of the Ca^++-transient was considered as the relevant signal and the mean values of corresponding wells were analysed as described below.
The sigmoidal dose response curves were analysed by computerised curve-fitting, using the GraphPad Program. […] For antagonist responses the IC50-value was calculated using non-linear regression.
The last columns indicates—without being limited therefore—for which the compounds might be most suitable. Of course, since for some neurokinin receptors no data was determined, it is obvious that these compounds might be attributed to another suitable use.

[2] = molecular target: NK1 (Homo sapiens, UniProt P25103); test: Signal transduction (ST), intracellular Ca++ (FLIPR), NK1 antagonistic activity; format: cell-based; details: read-out: pIC50 NK1 (converted)
Sequence of NK1 (P25103 whole entry): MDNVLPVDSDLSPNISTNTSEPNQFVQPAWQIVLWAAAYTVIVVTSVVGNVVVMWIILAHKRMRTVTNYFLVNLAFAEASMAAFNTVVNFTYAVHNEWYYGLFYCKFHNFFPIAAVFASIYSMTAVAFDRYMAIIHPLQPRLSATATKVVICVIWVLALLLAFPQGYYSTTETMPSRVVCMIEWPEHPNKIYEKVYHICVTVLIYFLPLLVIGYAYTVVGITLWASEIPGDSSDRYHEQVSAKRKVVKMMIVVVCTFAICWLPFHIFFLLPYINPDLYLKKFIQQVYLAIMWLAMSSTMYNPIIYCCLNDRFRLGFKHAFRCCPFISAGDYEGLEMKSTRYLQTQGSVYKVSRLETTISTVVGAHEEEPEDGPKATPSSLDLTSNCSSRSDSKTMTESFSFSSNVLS
Method: as §1
The sigmoidal dose response curves were analysed by computerised curve-fitting, using the GraphPad Program. […] For antagonist responses the IC50-value was calculated using non-linear regression. […]

| Compound | IC50 [1] [µM] | IC50 [2] [µM] |
| --- | --- | --- |
| O=C(C(=O)N1CCC(N2CCN(C3CCN(C(=O)c4cc(C(F)(F)F)cc(C(F)(F)F)c4)C(Cc4ccccc4)C3)CC2)C1)c1ccco1 (single isomer, unassigned) [Compound 191] | 2.51 | 0.0158 |
| N#Cc1cccc(C(=O)N2CCC(N3CCN(C4CCN(C(=O)c5cc(C(F)(F)F)cc(C(F)(F)F)c5)C(Cc5ccccc5)C4)CC3)C2)c1 (single isomer, unassigned) [Compound 192] | 0.631 | 0.01 |
| N#Cc1cccc(C(=O)N2CCC(N3CCN(C4CCN(C(=O)c5cc(C(F)(F)F)cc(C(F)(F)F)c5)C(Cc5ccccc5)C4)CC3)C2)c1 (single isomer, unassigned) [Compound 193] | 0.501 | 0.00794 |
| O=C(c1cc(C(F)(F)F)cc(C(F)(F)F)c1)N1CCC(N2CCN(C3CCN(Cc4ccccc4)C3)CC2)CC1Cc1ccc(F)c(F)c1 (single isomer, unassigned) [Compound 222] | 6.31 | 0.0501 |
| O=C(c1cc(C(F)(F)F)cc(C(F)(F)F)c1)N1CCC(N2CCN(C3CCN(Cc4ccccc4)C3)CC2)CC1Cc1ccc(F)c(F)c1 (single isomer, unassigned) [Compound 223] | 1.58 | 0.158 |
| O=C(C1CCOC1)N1CCC(N2CCN(C3CCN(C(=O)c4cc(C(F)(F)F)cc(C(F)(F)F)c4)C(Cc4ccc(F)c(F)c4)C3)CC2)C1 (single isomer, unassigned) [Compound 227] | 1.58 | 0.00316 |
| O=C(C1CC1)N1CCC(N2CCN(C3CCN(C(=O)c4cc(C(F)(F)F)cc(C(F)(F)F)c4)C(Cc4ccc(F)c(F)c4)C3)CC2)C1 (single isomer, unassigned) [Compound 231] | 3.16 | 0.00631 |
| CC(C(=O)N1CCC(N2CCN([C@H]3CCN(C(=O)c4cc(C(F)(F)F)cc(C(F)(F)F)c4)[C@H](Cc4ccc(F)c(F)c4)C3)CC2)C1)c1ccccc1 (single isomer, unassigned) [Compound 233] | 0.794 | 0.0251 |
| O=C(c1cc(C(F)(F)F)cc(C(F)(F)F)c1)N1CCC(N2CCN(C3CCN(S(=O)(=O)c4cccs4)C3)CC2)CC1Cc1ccc(F)c(F)c1 (single isomer, unassigned) [Compound 234] | 3.16 | 0.01 |
| Cc1nnsc1C(=O)N1CCC(N2CCN(C3CCN(C(=O)c4cc(C(F)(F)F)cc(C(F)(F)F)c4)C(Cc4ccc(F)c(F)c4)C3)CC2)C1 (single isomer, unassigned) [Compound 236] | 5.01 | 0.00398 |
| O=C(c1cnccn1)N1CCC(N2CCN(C3CCN(C(=O)c4cc(C(F)(F)F)cc(C(F)(F)F)c4)C(Cc4ccc(F)c(F)c4)C3)CC2)C1 (single isomer, unassigned) [Compound 237] | 3.98 | 0.01 |
| O=C(C1CCOC1)N1CCC(N2CCN(C3CCN(C(=O)c4cc(C(F)(F)F)cc(C(F)(F)F)c4)C(Cc4ccc(F)c(F)c4)C3)CC2)C1 (single isomer, unassigned) [Compound 242] | 2.51 | 0.01 |
| Cc1nnsc1C(=O)N1CCC(N2CCN(C3CCN(C(=O)c4cc(C(F)(F)F)cc(C(F)(F)F)c4)C(Cc4ccccc4)C3)CC2)C1 (single isomer, unassigned) [Compound 381] | 2.51 | 0.00501 |
| O=C(C1CCCCC1)N1CCC(N2CCN(C3CCN(C(=O)c4cc(C(F)(F)F)cc(C(F)(F)F)c4)C(Cc4ccccc4)C3)CC2)C1 (single isomer, unassigned) [Compound 402] | 0.501 | 0.0158 |
| O=C(c1ccccc1)N1CCC(N2CCN(C3CCN(C(=O)c4cc(C(F)(F)F)cc(C(F)(F)F)c4)C(Cc4ccccc4)C3)CC2)C1 (stereo not drawn) [Compound 3] | 1.58 | 0.126 |
| O=C(c1cc(C(F)(F)F)cc(C(F)(F)F)c1)N1CC[C@H](N2CCN(C3CCN(c4nc5ccccc5s4)C3)CC2)C[C@H]1Cc1ccccc1 (stereo partly drawn) [Compound 7] | 0.316 | 0.2 |
| Cn1c(N2CCC(N3CCN([C@H]4CCN(C(=O)c5cc(C(F)(F)F)cc(C(F)(F)F)c5)[C@H](Cc5ccccc5)C4)CC3)C2)nc2ccccc21 (stereo partly drawn) [Compound 8] | 3.98 | 0.1 |
| Cc1ccccc1-n1cncc1CN1CCC(N2CCN([C@H]3CCN(C(=O)c4cc(C(F)(F)F)cc(C(F)(F)F)c4)[C@H](Cc4ccccc4)C3)CC2)C1 (stereo partly drawn) [Compound 9] | 1.26 | 0.0398 |

| Compound | IC50 [1] [µM] | IC50 [2] [µM] |
| --- | --- | --- |
| O=C(c1cc(C(F)(F)F)cc(C(F)(F)F)c1)N1CC[C@H](N2CCN(C3CCN(Cc4nc5ccccc5[nH]4)C3)CC2)C[C@H]1Cc1ccccc1 (stereo partly drawn) [Compound 10] | 6.31 | 0.1 |
| CCOCCn1c(CN2CCC(N3CCN([C@H]4CCN(C(=O)c5cc(C(F)(F)F)cc(C(F)(F)F)c5)[C@H](Cc5ccccc5)C4)CC3)C2)nc2ccccc21 (stereo partly drawn) [Compound 11] | 3.16 | 0.126 |
| N#Cc1cccc(C(=O)N2CCC(N3CCN([C@H]4CCN(C(=O)c5cc(C(F)(F)F)cc(C(F)(F)F)c5)[C@H](Cc5ccccc5)C4)CC3)C2)c1 (stereo partly drawn) [Compound 12] | 0.126 | 0.0794 |
| CC(C)Oc1cccc(C(=O)N2CCC(N3CCN([C@H]4CCN(C(=O)c5cc(C(F)(F)F)cc(C(F)(F)F)c5)[C@H](Cc5ccccc5)C4)CC3)C2)c1 (stereo partly drawn) [Compound 15] | 2 | 0.0316 |
| COc1cccc(OC)c1C(=O)N1CCC(N2CCN([C@H]3CCN(C(=O)c4cc(C(F)(F)F)cc(C(F)(F)F)c4)[C@H](Cc4ccccc4)C3)CC2)C1 (stereo partly drawn) [Compound 18] | 2.51 | 0.0251 |
| O=C(c1ccc(F)c(F)c1)N1CCC(N2CCN([C@H]3CCN(C(=O)c4cc(C(F)(F)F)cc(C(F)(F)F)c4)[C@H](Cc4ccccc4)C3)CC2)C1 (stereo partly drawn) [Compound 20] | 5.01 | 0.126 |
| O=C(c1ccc(Cl)cc1Cl)N1CCC(N2CCN([C@H]3CCN(C(=O)c4cc(C(F)(F)F)cc(C(F)(F)F)c4)[C@H](Cc4ccccc4)C3)CC2)C1 (stereo partly drawn) [Compound 22] | 2.51 | 0.0501 |
| Cc1occc1C(=O)N1CCC(N2CCN([C@H]3CCN(C(=O)c4cc(C(F)(F)F)cc(C(F)(F)F)c4)[C@H](Cc4ccccc4)C3)CC2)C1 (stereo partly drawn) [Compound 36] | 0.2 | 0.0251 |
| Cc1cc(C(=O)N2CCC(N3CCN([C@H]4CCN(C(=O)c5cc(C(F)(F)F)cc(C(F)(F)F)c5)[C@H](Cc5ccccc5)C4)CC3)C2)c(C)o1 (stereo partly drawn) [Compound 37] | 2 | 0.0398 |
| Cc1oc(-c2ccccc2)cc1C(=O)N1CCC(N2CCN([C@H]3CCN(C(=O)c4cc(C(F)(F)F)cc(C(F)(F)F)c4)[C@H](Cc4ccccc4)C3)CC2)C1 (stereo partly drawn) [Compound 38] | 7.94 | 0.2 |
| O=C(c1cccs1)N1CCC(N2CCN([C@H]3CCN(C(=O)c4cc(C(F)(F)F)cc(C(F)(F)F)c4)[C@H](Cc4ccccc4)C3)CC2)C1 (stereo partly drawn) [Compound 42] | 0.251 | 0.0251 |
| Cc1cc(C(=O)N2CCC(N3CCN([C@H]4CCN(C(=O)c5cc(C(F)(F)F)cc(C(F)(F)F)c5)[C@H](Cc5ccccc5)C4)CC3)C2)no1 (stereo partly drawn) [Compound 47] | 3.98 | 0.0398 |
| Cc1noc(C)c1C(=O)N1CCC(N2CCN([C@H]3CCN(C(=O)c4cc(C(F)(F)F)cc(C(F)(F)F)c4)[C@H](Cc4ccccc4)C3)CC2)C1 (stereo partly drawn) [Compound 48] | 2.51 | 0.0158 |
| Cc1nc(C)c(C(=O)N2CCC(N3CCN([C@H]4CCN(C(=O)c5cc(C(F)(F)F)cc(C(F)(F)F)c5)[C@H](Cc5ccccc5)C4)CC3)C2)s1 (stereo partly drawn) [Compound 50] | 3.16 | 0.00631 |
| Cc1nnsc1C(=O)N1CCC(N2CCN([C@H]3CCN(C(=O)c4cc(C(F)(F)F)cc(C(F)(F)F)c4)[C@H](Cc4ccccc4)C3)CC2)C1 (stereo partly drawn) [Compound 51] | 3.98 | 0.0631 |
| O=C(c1csnn1)N1CCC(N2CCN([C@H]3CCN(C(=O)c4cc(C(F)(F)F)cc(C(F)(F)F)c4)[C@H](Cc4ccccc4)C3)CC2)C1 (stereo partly drawn) [Compound 52] | 0.631 | 0.0316 |
| O=C(c1snnc1-c1ccccc1)N1CCC(N2CCN([C@H]3CCN(C(=O)c4cc(C(F)(F)F)cc(C(F)(F)F)c4)[C@H](Cc4ccccc4)C3)CC2)C1 (stereo partly drawn) [Compound 53] | 3.16 | 0.0398 |
| O=C(c1cccc2ccccc12)N1CCC(N2CCN([C@H]3CCN(C(=O)c4cc(C(F)(F)F)cc(C(F)(F)F)c4)[C@H](Cc4ccccc4)C3)CC2)C1 (stereo partly drawn) [Compound 54] | 0.794 | 0.0398 |
